The values below come from US9650423B2, “Long peptides of 22-45 amino acid residues that induce and/or enhance antigen specific immune responses” (priority 2000, dated 2017).

Assay [1] deals with PBMC of HLA-DR1 positive blood donors. The assay is described as follows: Proliferation of PBMC stimulated with long E6 peptides. The class given is cell-based, human. The conditions noted are these: two HLA-DR1 positive donors, stimulated with pool of two 35-mer peptides covering E6 109-158. On the procedure:
Furthermore, PBMC of two different HLA-DR1 positive blood donors were stimulated with a pool of two long 35-mer peptides that together covered E6 109-158. […] A CD4+ T-helper clone derived from one of these bulks was analysed further and specifically proliferated and produced IFNγ when stimulated with HPV16 E6 peptide and HPV16 E6 protein in a HLA-DR1 restricted manner (FIG. 16).
FIGS. 16a-16d depict a peptide E6127-158 induced T-cell response that recognizes naturally processed Ag. PBMC from a healthy HLA-DR1 positive blood donor were stimulated four times with peptide E6127-158. FIGS. 16a and 16b are entitled E6 127-158 stimulated HLA-DR1+PBMC. Proliferation of the bulk T-cell culture (top, left, 16a) and IFNγ production (top, right, 16b) is depicted. FIGS. 16c and 16d are entitled E6 127-158 stimulated PBMC derived clone 9 HLA-DR restriction in proliferation and IFNγ production. The specific proliferation (bottom, left, 16c) and IFNγ production (bottom, right, 16d) of the T-helper clone, derived from the bulk T-cell culture, and HLA-restriction when stimulated with E6127-158, or E6 protein is depicted. (See, also, FIGS. 1a-1d and associated descriptions).

Another assay addresses T1, HLA-DR1 (DRB*0101) (Homo sapiens, UniProt P01903+P01911, A100R/D57E/F55L/F60I/F76Y/I96L/L162R/M171V/P40L/Q125E/R42F/V115G/Y59C).
T1 construct: endogenous in cells; host or cells: LG2.1 B-lymphoblastic cell line, homozygous for HLA-DR
The assay is described as follows: biochemical. The class given is binding. The conditions noted are these: read-out: Binding DR1, IC50.

Another assay deals with HLA-DR2 (DRB1*0201). Put plainly: HLA-DR-peptide binding assay. More on the design: species or system human. The conditions noted are these: HPV16-E7 22-mer peptides; >70 indicates undetectable binding; read-out: Binding DR2, IC50.
The target of the next assay is HLA-DR3 (DRB*0301). The assay is described as follows: HLA-DR-peptide binding assay. More on the design: species or system human. The conditions noted are these: HPV16-E7 22-mer peptides; >70 indicates undetectable binding; read-out: Binding DR3, IC50.
The target in the next assay is HLA-DR4 (DRB*0401). The assay is described as follows: HLA-DR-peptide binding assay. Further details: species or system human. The note with it: HPV16-E7 22-mer peptides; >70 indicates undetectable binding; read-out: Binding DR4, IC50.
Assay [2] deals with PBMC or cord blood cells (CBC). The class given is cell-based, human.
Another assay addresses HLA-DR7 (DRB1*0701) (Homo sapiens, UniProt P01903+P01911, A100R/A102G/A103Q/D57E/D86V/E43K/F76Y/K127E/L162R/M171V/P40G/Q125H/Q99D/R33Q/R42Y/R54Q/S133A/S66F/T210M/V115G/Y107V/Y59L/Y89S). The note with it: read-out: Binding DR7, IC50.
The subject of assay [3] is HPV16 E7-specific T-helper clones. The assay is described as follows: HPV16 E7-specific Th-clones: proliferation and IFNγ production. The conditions noted are these: Th-clone from HLA-DR15, 4 and DQ6,7 positive PBMC raised against peptide E741-62. The class given is cell-based, human. On the procedure: Peptide-specific T-cell bulk cultures were generated as described previously (van der Burg et al., 1999) using either the E7 22-mer or E7 35-mer peptides. Specific proliferation was measured by incubation of 50,000 responders with an equal amount of irradiated (30Gy) APC (autologous PBMC unless indicated otherwise) and peptide or protein as indicated. E7-peptide and -protein-specific bulk T-cells were cloned by limiting dilution as described previously (van der Burg et al., 1999).
To determine specific excretion of cytokines, T-cell clones were stimulated by incubation of 50.000 T-cells with an equal amount of APC (30Gy) together with 10 μg/ml peptide, control peptide, E7 protein or control protein as indicated. After 24 hours of incubation, supernatant was harvested and replicate wells were pooled. Cytokine production was measured by Enzyme-Linked Immunosorbent Assay (ELISA) as described previously (van der Burg et al., 1999).

For the next assay, the system named is HLA-DR 1, 2, 3, 4 and 7. Put plainly: HLA-DR-peptide binding assay, summary over the molecules tested. Further details: species or system human. The note with it: E7 peptides tested on HLA-DR 1, 2, 3, 4 and 7. The protocol: The analysis of peptide binding to purified DR molecules was performed using N-terminally fluorescence-labelled standard peptides.
Another assay concerns Ad5E1-expressing tumors. The note with it: Toes et al., 1996a, 1996b; cited from earlier work.
Assay [4] deals with E7 49-57-specific CD8+ T cells. Put plainly: Vaccination, H-2Db E7 49-57 tetramer staining of spleen cultures. It is filed as in vivo, C57BL/6 mice. The note with it: B6 mice. On the procedure:
(§1) Immunization strategies. C57BL/6 mice were injected subcutaneously with either 50 μg E7^49-57 peptide or 150 μg E7^43-77 35-mer dissolved in PBS in order to achieve similar molar levels of the E7^49-57 CTL epitope in both cases. Combinations with various adjuvantia were tested. In the case of IFA and Montanide, the dissolved peptides were emulsified in 50% of these respective substances. ODN-CpG (50 μg/mouse), MPL (10 μg/mouse) and GM-CSF (4 μg/mouse) were all dissolved in PBS and mixed with the peptides before subcutaneous vaccination. The total injected volume was 200 μl/mouse.
T cell cultures. T cells were obtained from immunized mice by culturing spleen cells (5×10^6 cells/well of a 24-wells plate) in complete medium in the presence of 0.5×10^6 E7^49-57-expressing cells (tumor cell line 13.2) or, when indicated, in the presence of D1 cells.
Tetramer staining. Spleen cultures, stimulated with tumor cell line 13.2 for seven days, were transferred at an amount of 40×10^4 per well to 96-well V-bottom microtiter plates and washed twice with PBS/BSA 0.5%. Subsequently, PE-labelled E749-57-containing tetramer was added. After 30 minutes of incubation at room temperature, cells were washed twice with PBS/BSA 0.5% and incubated with FITC-labelled anti CD8b Ab for 30 minutes. Subsequently cells were washed twice in PBS/BSA 0.5%, suspended in PBS/BSA 0.5% containing Propidium Iodide (PI) (0.5) μg/ml) and transferred to tubes. Cell samples were analysed in a FACSCalibur flow cytometer (Becton Dickinson, San Jose, Calif., USA) using CellQuest software. A total of 20×10^4 events was analysed for fluorescence intensity. Debris was gated out using the PI staining and subsequently the CD8^+ fraction was gated. […] As a positive control the HPV16 E7 specific CTL clone 9.5 was used.

The subject of assay [5] is E7 43-77-specific IFNγ-producing CD4+ T cells. Put plainly: Vaccination, intracellular IFN-γ staining of CD4+ T cells. The class given is in vivo, C57BL/6 mice. The conditions noted are these: B6 mice, vaccinated once, IFA. On the procedure:
as §1
Before use, the D1 cells were incubated for 16 hours with the E7^43-77 35-mer and subsequently activated by adding LPS (10 μg/ml) for 6 hours and then thoroughly washed. Complete medium consists of Iscove's Modified Dulbecco's Medium (IMDM; BioWhittaker, Walkersville, Md., USA) supplemented with 8% FCS, 100 IU/ml penicillin, 2 mM glutamine (ICN, Aurora, Ohio, USA) and 30 μM 2-ME (Merck, Darmstadt, Germany). Cultures were maintained at 37° C. in humidified air containing 5% CO2. No exogenous IL-2 was added. […]
Intracellular cytokine staining. […] Subsequently, the percentage of CD8^+ and CD4^+ IFN-γ producing T cells was measured as described before (van der Burg et al., 2001).

Assay [6] has as its system E7 49-57-specific CD8+ T cells. The assay is described as follows: Vaccination, H-2Db E7 49-57 tetramer staining of spleen cultures. It is filed as in vivo, C57BL/6 mice. The conditions noted are these: MHC class II−/− mice.

Several values for one entry are separate records, joined by “and”; a condition that tells them apart may be missing. Equal values may be shown once. Residues, ends and D or L forms follow the SMILES beside them. No end group written: not given here.

As to “E6 protein: recombinant HPV16-E6 protein produced in E. coli (DKKQRFHNIRGRWTGRCMSCCRSSRTRRETQL) [reference compound]”, the “specific proliferation of PBMC” value in [1] is “proliferated specifically”.
Still for that read-out and setting: the result for “E6 127-158: peptide, amino acids 127-158 of HPV16 E6 protein (DKKQRFHNIRGRWTGRCMSCCRSSRTRRETQL)” reads “proliferated specifically”.
As usually defined, the IC50 is the concentration needed to halve the response being measured. Take STHVDIRTLEDLLMGTLGIVCP [E7 71-92]: the IC50 is 12 µM on HLA-DR1 (DRB*0101); 2 µM on HLA-DR2 (DRB1*0201); more than 70 µM on HLA-DR3 (DRB*0301); more than 70 µM on HLA-DR4 (DRB*0401); more than 70 µM on HLA-DR7 (DRB1*0701). In addition, in [2], the “number of antigen-specific cells (IFNγ ELISPOT)” value is 2 per 100,000 cord blood cells or PBMC and <1 per 100,000 cord blood cells or PBMC.
Take `CC[C@H](C)[C@H](NC(=O)[C@H](CC(N)=O)NC(=O)[C@H](Cc1ccc(O)cc1)NC(=O)[C@H](Cc1c[nH]cn1)NC(=O)[C@H](C)NC(=O)[C@H](CCCNC(=N)N)NC(=O)[C@H](CC(=O)O)NC(=O)[C@@H]1CCCN1C(=O)[C@H](CCC(=O)O)NC(=O)[C@H](C)NC(=O)[C@H](CCC(N)=O)NC(=O)CNC(=O)[C@H](C)NC(=O)[C@@H]1CCCN1)C(=O)N[C@H](C(=O)N[C@H](C(=O)N[C@@H](Cc1ccccc1)C(=O)N[C@@H](CS)C(=O)N[C@@H](CS)C(=O)N[C@@H](CCCCN)C(=O)N[C@@H](CS)C(=O)N[C@@H](CC(=O)O)C(=O)O)[C@@H](C)O)C(C)C` [E7 41-62] (H-PAGQAEPDRAHYNIVTFCCKCD-OH; N-terminus and C-terminus assumed): the IC50 at HLA-DR1 (DRB*0101) was 7.4 µM; at HLA-DR2 (DRB1*0201), 50 µM; on HLA-DR3 (DRB*0301), 55 µM; on HLA-DR4 (DRB*0401) it was 38 µM; at HLA-DR7 (DRB1*0701), more than 70 µM. The “response of HLA-DR15 restricted Th-clone to pulsed APC” value in assay [3] is recorded as “specifically respond”. For the same compound, the HLA-DR molecules bound result with HLA-DR 1, 2, 3, 4 and 7 is “bound to DR1, 2, 3 and 4”.
With “SGPSNTPPEI (minimal E1A-derived CTL epitope)”, the “effect of peptide vaccination on outgrowth of Ad5E1-expressing tumors” value in the assay on Ad5E1-expressing tumors is “enhances rather than inhibits the growth”.
For “E6 121-142: 22-mer peptide, amino acids 121-142 of HPV16 E6 protein (EKQRHLDKKQRFHNIRGRWTGR; UniProt P03126 121-142, looked up, fragment)”, the “specific proliferation of PBMC” value in assay [1] is “proliferated specifically”.
As for “GQAEPDRAHYNIVTFCCKCDSTLRLCVQSTHVDIR [E7 43-77]”, the “response of HLA-DR15 restricted Th-clone to pulsed APC” value in [3] is “specifically respond”. The “E7 49-57-specific CD8+ T cell response” value in assay [4] (prime-boost, IFA) is “vigorous”. Besides, the “mice with E7 49-57-specific CTL response” value in assay [4] (primed and boosted 50 days later, IFA) is on record as 9/11. The “E7 49-57-specific CD8+ T cells, mean” value in assay [4] (primed and boosted, IFA) was 19%. For the same compound, the “E7 49-57-specific CD8+ T cells, range” value in assay [4] (primed and boosted, IFA) was 5-40%. For the same compound, the “E7 49-57-specific CTL response” value was “moderate” in assay [4] (vaccinated once, GM-CSF and IFA); “no responses were observed” in assay [4] (vaccinated once, Montanide adjuvant); “no or minimal CTL responses” in [4] (vaccinated once, combined with anti-CD40 antibody or GM-CSF). In addition, the “CD8+ T cells stained with tetramers” value in assay [4] (vaccinated once, IFA, responders) is listed as approximately 5%. The “mice responding to the vaccine (tetramer staining)” value in assay [4] (vaccinated once, IFA, spleens day 10) is on record as 3 out of 9. Also, in assay [4] (vaccinated once, MPL or ODN-CpG), the “mice with E7 49-57-specific CTL responses” value was “in all mice”. Moreover, the “level of the CTL response” value in assay [4] (vaccinated once, MPL or ODN-CpG, majority of animals) is on record as “up to 40 % of CD8+ T cells”. Also, in assay [5], the “E7 43-77-specific IFNγ-producing CD4+ T cells” value is reported as not below 5%. The CTL responses result in assay [6] (one vaccination, ODN-CpG) is reported as “robust CTL responses”. In addition, the “number of E7 49-57-specific CTL” value in [6] (prime-boost, IFA) is on record as “far lower than found in B6 mice after two vaccinations”.
